# Assay results as given in PubChem BioAssay (NCI).
#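 48-hour exposure; five concentrations; linearly interpolated endpoints. The concentration for full growth arrest is given as TGI.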
# Assays:
# Experiment in all cases: inhibition of tumour cell growth, NCI panel, 48 h
# NCI-H23 lung = test system: NCI-H23 lung
# U251 CNS = test system: U251 CNS
# NCI-H226 lung = test system: NCI-H226 lung
# HL-60(TB) leukemia = test system: HL-60(TB) leukemia
# UO-31 renal = test system: UO-31 renal
# HOP-92 NSCLC = test system: HOP-92 NSCLC
# UACC-257 melanoma = test system: UACC-257 melanoma
# 786-0 renal = test system: 786-0 renal
# OVCAR-5 ovarian = test system: OVCAR-5 ovarian
# RPMI-8226 leukemia = test system: RPMI-8226 leukemia
Compound,TGI (NCI-H23 lung),TGI (U251 CNS),TGI (NCI-H226 lung),TGI (HL-60(TB) leukemia),TGI (UO-31 renal),TGI (HOP-92 NSCLC),TGI (UACC-257 melanoma),TGI (786-0 renal),TGI (OVCAR-5 ovarian),TGI (RPMI-8226 leukemia)
O=c1c2cc(Cl)ccc2n2nnc3ccc(NCCNCCO)c1c32,2.86 µM,1.94 µM,4.13 µM,9.77 µM,3.49 µM,6.1 µM,3.6 µM,2.02 µM,3.42 µM,10.2 µM
CCSc1nn(-c2c3ccccc3nc3ccccc23)c(=S)s1,> 100 µM,> 100 µM,> 100 µM,> 100 µM,> 100 µM,> 100 µM,> 100 µM,> 100 µM,> 100 µM,> 100 µM
CC(C)(CN1CCCCC1)C(=O)CC(SCCS(=O)(=O)O)c1ccc(Cl)c(Cl)c1 (configuration not stated),15.8 µM,19.3 µM,39.1 µM,5.63 µM,16.4 µM,6.18 µM,20.8 µM,3.4 µM,14.6 µM,7.03 µM
O=C(NC(Cc1c[nH]c2ccccc12)C(=O)O)/C(=C/c1ccccc1)NC(=O)c1ccccc1 (configuration not stated),> 100 µM,> 100 µM,> 100 µM,> 100 µM,> 100 µM,94.8 µM,> 100 µM,> 100 µM,> 100 µM,> 100 µM
Cc1ccc2c(=O)c3c(O)c4c(cc3n(C)c2c1)OC(C)(C)C=C4,> 10 µM,> 10 µM,> 10 µM,> 10 µM,–,> 10 µM,> 10 µM,> 10 µM,> 10 µM,> 10 µM
C=C1C[C@]23CC[C@@H]4C(CO)(CO)CC(=O)C[C@]4(C)[C@@H]2C(O)C[C@H]1C3 (some centres not stated),> 100 µM,> 100 µM,> 100 µM,> 100 µM,> 100 µM,> 100 µM,> 100 µM,> 100 µM,> 100 µM,> 100 µM
Clc1cccc(Cl)c1C1ON=C(c2ccccc2)N1C12CC3CC(CC(C3)C1)C2 (configuration not stated),> 100 µM,> 100 µM,> 100 µM,8.72 µM,> 100 µM,75.3 µM,15.1 µM,> 100 µM,> 100 µM,47.8 µM
Cn1cnc([N+](=O)[O-])c1Sc1nncc2[nH]cnc12,> 100 µM,> 100 µM,> 100 µM,> 100 µM,> 100 µM,> 100 µM,> 100 µM,> 100 µM,> 100 µM,> 100 µM
NC(=S)NS(=O)(=O)c1ccc(Cl)cc1Cl,> 100 µM,> 100 µM,> 100 µM,> 100 µM,> 100 µM,> 100 µM,> 100 µM,> 100 µM,> 100 µM,> 100 µM
COc1ccc(C2=C(N)c3ccccc3C2=O)cc1,> 100 µM,> 100 µM,> 100 µM,> 100 µM,–,> 100 µM,> 100 µM,> 100 µM,> 100 µM,> 100 µM
CC(CN(C)C)C(O)(c1ccccc1)c1ccccc1 (configuration not stated),> 100 µM,> 100 µM,> 100 µM,> 100 µM,> 100 µM,> 100 µM,> 100 µM,> 100 µM,> 100 µM,> 100 µM
Cc1ccc(N=Nc2cc(=O)[nH]c(=O)[nH]2)cc1C,–,29.1 µM,41.8 µM,7.18 µM,32.6 µM,33.4 µM,28.7 µM,8.69 µM,28.8 µM,14 µM
Cc1ccc2c3ccc4c(c3n(C)c2c1)C(=O)C=CC4=O,> 10 µM,> 10 µM,> 10 µM,3.9 µM,> 10 µM,7.26 µM,> 10 µM,5.63 µM,> 10 µM,5.67 µM
